Laboratory results: US20200055839A1 (priority 2017, published 2020)

Each compound was assayed on NL-RLuc virus (assay: Inhibition of HIV replication (NL-RLuc virus, luciferase readout in MT-2 cells)). Details: Human immunodeficiency virus 1, MT2, 120 h, MT-2 cells infected with NL-RLuc virus, 5 days of incubation, 10% FBS, at least 2 experiments.
Type: cell-based
Summary of the method: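 MT-2 cells infected with NL4-3-derived virus carrying Renilla luciferase in place of part of nef, grown 5 days with serial compound dilutions in RPMI 1640/10% FBS. Virus growth read as luciferase expression. EC50 from median effect equation, at least 2 experiments.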

Compound | EC50
Cc1nc(Nc2cnn(C)c2)c(-c2ccc(OCCc3ccc(F)cc3)cc2)c(N2CCC(C)(C)CC2)c1[C@H](OC(C)(C)C)C(=O)O [Example 87, (S)-2-(tert-Butoxy)-2-(4-(4,4-dimethylpiperidin-1-yl)-5-(4-(4-fluorophenethoxy)phenyl)-2-methyl-6-((1-methyl-H-pyrazol-4-yl)amino)pyridin-3-yl)acetic acid] | 2 nM
Cc1nc(-c2ccn(C)n2)c(-c2ccc(OCCc3ccc(F)cc3)cc2)c(N2CCC(C)(C)CC2)c1[C@H](OC(C)(C)C)C(=O)O [Example 46, (S)-2-(tert-Butoxy)-2-(4-(4,4-dimethylpiperidin-1-yl)-5-(4-(4-fluorophenethoxy)phenyl)-2-methyl-6-(1-methyl-1H-pyrazol-3-yl)pyridin-3-yl)acetic acid] | 4 nM
Cc1ncc(-c2cccc(C(N)=O)c2)c(N2CCC(C)(C)CC2)c1[C@H](OC(C)(C)C)C(=O)O [Example 146, (2S)-2-(tert-Butoxy)-2-[5-(3-carbamoylphenyl)-4-(4,4-dimethylpiperidin-1-yl)-2-methylpyridin-3-yl]acetic acid] | 142 nM
Cc1ncc(-c2ccc(OCCc3ccccc3)cn2)c(N2CCC(C)(C)CC2)c1[C@H](OC(C)(C)C)C(=O)O [Example 285, (S)-2-(tert-Butoxy)-2-(4′-(4,4-dimethylpiperidin-1-yl)-6′-methyl-5-phenethoxy-[2, 3′-bipyridin]-5′-yl)acetic acid] | 0.6 nM
Cc1ncc(-c2ccccc2)c(N2CCC(C)(C)CC2)c1[C@H](OC(C)(C)C)C(=O)O [Example 134, (2S)-2-(tert-Butoxy)-2-[4-(4,4-dimethylpiperidin-1-yl)-2-methyl-5-phenylpyridin-3-yl]acetic acid] | 7 nM
COc1cccc(CCOc2ncc(-c3cnc(C)c([C@H](OC(C)(C)C)C(=O)O)c3N3CCC(C)(C)CC3)cc2F)c1 [Example 383, (2S)-2-(tert-butoxy)-2-[4-(4,4-dimethylpiperidin-1-yl)-5′-fluoro-6′-[2-(3-methoxyphenyl)ethoxy]-6-methyl-[3,3′-bipyridine]-5-yl]acetic acid] | 3 nM
Cc1nc(Nc2ccnnc2)c(-c2ccc(OCCc3ccc(F)cc3)c(F)c2)c(N2CCC(C)(C)CC2)c1[C@H](OC(C)(C)C)C(=O)O [Example 74, (S)-2-(tert-Butoxy)-2-(4-(4,4-dimethylpiperidin-1-yl)-5-(3-fluoro-4-(4-fluorophenethoxy)phenyl)-2-methyl-6-(pyridazin-4-ylamino)pyridin-3-yl)acetic acid] | 2 nM
Cc1nc(NCC2CCOCC2)c(-c2ccc(OCCc3ccc(F)cc3)cc2)c(N2CCC(C)(C)CC2)c1[C@H](OC(C)(C)C)C(=O)O [Example 44, (S)-2-(tert-Butoxy)-2-(4-(4,4-dimethylpiperidin-1-yl)-5-(4-(4-fluorophenethoxy)phenyl)-2-methyl-6-(((tetrahydro-2H-pyran-4-yl)methyl)amino)pyridin-3-yl)acetic acid] | 3 nM
Cc1nc(N)c(-c2ccc(OCCc3ccc(F)cc3)cc2F)c(N2CCC(C)(C)CC2)c1[C@H](OC(C)(C)C)C(=O)O [Example 72, (2S)-2-(6-Amino-4-(4,4-dimethylpiperidin-1-yl)-5-(2-fluoro-4-(4-fluorophenethoxy)phenyl)-2-methylpyridin-3-yl)-2-(tert-butoxy)acetic acid] | 2 nM
CCC(C)COc1ccc(-c2cnc(C)c([C@H](OC(C)(C)C)C(=O)O)c2N2CCC(C)(C)CC2)nc1 (stereo partly drawn) [Example 360, (2S)-2-(tert-butoxy)-2-[4′-(4,4-dimethylpiperidin-1-yl)-6′-methyl-5-(2-methylbutoxy)-[2,3′-bipyridine]-5′-yl]acetic acid] | 0.8 nM
Cc1ncc(-c2ccc(O[C@H](C)C(C)C)cc2)c(N2CCC(C)(C)CC2)c1[C@H](OC(C)(C)C)C(=O)O [Example 362, (2S)-2-(tert-butoxy)-2-[4-(4,4-dimethylpiperidin-1-yl)-2-methyl-5-(4-{[(2R)-3-methylbutan-2-yl]oxy}phenyl)pyridin-3-yl]acetic acid] | 8 nM
Cc1[nH]c(=O)c([C@H](OC(C)(C)C)C(=O)O)c(N2CCC(C)(C)CC2)c1-c1ccc(OCCc2ccc(F)cc2)cc1 [Example 4, (S)-2-(tert-butoxy)-2-(4-(4,4-dimethylpiperidin-1-yl)-5-(4-(4-fluorophenethoxy)phenyl)-6-methyl-2-oxo-1,2-dihydropyridin-3-yl)acetic acid] | 8 nM
Cc1ncc(-c2ccc(OCCc3ccc(F)cc3)c(C(F)(F)F)c2)c(N2CCC(C)(C)CC2)c1[C@H](OC(C)(C)C)C(=O)O [Example 241, (S)-2-(tert-Butoxy)-2-(4-(4,4-dimethylpiperidin-1-yl)-5-(4-(4-fluorophenethoxy)-3-(trifluoromethyl)phenyl)-2-methylpyridin-3-yl)acetic acid] | 7 nM
Cc1ncc(-c2ccc(O[C@H](C)c3ccccc3)cn2)c(N2CCC(C)(C)CC2)c1[C@H](OC(C)(C)C)C(=O)O [Example 350, (2S)-2-(tert-butoxy)-2-[4′-(4,4-dimethylpiperidin-1-yl)-6′-methyl-5-[(1R)-1-phenylethoxy]-[2,3′-bipyridine]-5′-yl]acetic acid] | 3 nM
CCCCCOc1ccc(-c2cnc(C)c([C@H](OC(C)(C)C)C(=O)O)c2N2CCC(C)(C)CC2)nc1 [Example 317, (2S)-2-(tert-butoxy)-2-[4′-(4,4-dimethylpiperidin-1-yl)-6′-methyl-5-(pentyloxy)-[2,3′-bipyridine]-5′-yl]acetic acid] | 1 nM
Cc1ncc(-c2ccc(OCCCC(C)C)cn2)c(N2CCC(C)(C)CC2)c1[C@H](OC(C)(C)C)C(=O)O [Example 345, (2S)-2-(tert-butoxy)-2-[4′-(4,4-dimethylpiperidin-1-yl)-6′-methyl-5-[(4-methylpentyl)oxy]-[2,3′-bipyridine]-5′-yl]acetic acid] | 2 nM
Cc1nc(NCCn2cccn2)c(-c2ccc(OCCc3ccc(F)cc3)cc2)c(N2CCC(C)(C)CC2)c1[C@H](OC(C)(C)C)C(=O)O [Example 33, (S)-2-(6-((2-(1H-Pyrazol-1-yl)ethyl)amino)-4-(4,4-dimethylpiperidin-1-yl)-5-(4-(4-fluorophenethoxy)phenyl)-2-methylpyridin-3-yl)-2-(tert-butoxy)acetic acid] | 2 nM
COc1ccc(-c2cnc(C)c([C@H](OC(C)(C)C)C(=O)O)c2N2CCC(C)(C)CC2)cc1F [Example 179, (2S)-2-(tert-Butoxy)-2-[4-(4,4-dimethylpiperidin-1-yl)-5-(3-fluoro-4-methoxyphenyl)-2-methylpyridin-3-yl]acetic acid] | 5 nM
Cc1ncc(-c2cncc(F)c2)c(N2CCC(C)(C)CC2)c1[C@H](OC(C)(C)C)C(=O)O [Example 148, (2S)-2-(tert-Butoxy)-2-[4-(4,4-dimethylpiperidin-1-yl)-5′-fluoro-6-methyl-[3, 3′-bipyridine]-5-yl]acetic acid] | 7 nM
Cc1nc(-c2ccnn2C)c(-c2ccc(OCCc3ccc(F)cc3)cc2)c(N2CCC(C)(C)CC2)c1[C@H](OC(C)(C)C)C(=O)O [Example 50, (S)-2-(tert-Butoxy)-2-(4-(4,4-dimethylpiperidin-1-yl)-5-(4-(4-fluorophenethoxy)phenyl)-2-methyl-6-(1-methyl-1H-pyrazol-5-yl)pyridin-3-yl)acetic acid] | 2 nM
Cc1ncc(-c2cnc(OCc3ccccc3)c(F)c2)c(N2CCC(C)(C)CC2)c1[C@H](OC(C)(C)C)C(=O)O [Example 378, (2S)-2-[6′-(benzyloxy)-4-(4,4-dimethylpiperidin-1-yl)-5′-fluoro-6-methyl-[3,3′-bipyridine]-5-yl]-2-(tert-butoxy)acetic acid] | 2 nM
Cc1nc(C(C)(C)O)c(-c2ccc(OCCc3ccc(F)cc3)c(F)c2)c(N2CCC(C)(C)CC2)c1[C@H](OC(C)(C)C)C(=O)O (single isomer, unassigned) [Example 242] | 5 nM
CCCCC(F)(F)c1ccc(-c2cnc(C)c([C@H](OC(C)(C)C)C(=O)O)c2N2CCC(C)(C)CC2)nc1 [Example 276, (S)-2-(tert-Butoxy)-2-(5-(1,1-difluoropentyl)-4′-(4,4-dimethylpiperidin-1-yl)-6′-methyl-[2, 3′-bipyridin]-5′-yl)acetic acid] | 14 nM
Cc1cc(-c2cnc(C)c([C@H](OC(C)(C)C)C(=O)O)c2N2CCC(C)(C)CC2)nnc1OCCc1ccc(F)cc1 [Example 268, (S)-2-(tert-Butoxy)-2-(4-(4,4-dimethylpiperidin-1-yl)-5-(6-(4-fluorophenethoxy)-5-methylpyridazin-3-yl)-2-methylpyridin-3-yl)acetic acid] | 50 nM
Cc1nc(Nc2ccccc2)c(-c2ccc(OCCc3ccc(F)cc3)cc2)c(N2CCC(C)(C)CC2)c1[C@H](OC(C)(C)C)C(=O)O [Example 67, (S)-2-(tert-Butoxy)-2-(4-(4,4-dimethylpiperidin-1-yl)-5-(4-(4-fluorophenethoxy)phenyl)-2-methyl-6-(phenylamino)pyridin-3-yl)acetic acid] | 27 nM
Cc1cccc(CCOc2ccc(-c3cnc(C)c([C@H](OC(C)(C)C)C(=O)O)c3N3CCC(C)(C)CC3)nc2)c1 [Example 290, (2S)-2-(tert-butoxy)-2-[4′-(4,4-dimethylpiperidin-1-yl)-6′-methyl-5-[2-(3-methylphenyl)ethoxy]-[2,3′-bipyridine]-5′-yl]acetic acid] | 1 nM
Cc1nc(N)c(-c2cc(F)c(OCCc3ccc(F)cc3)cc2F)c(N2CCC(C)(C)CC2)c1[C@H](OC(C)(C)C)C(=O)O [Example 68, (2S)-2-(6-Amino-5-(2,5-difluoro-4-(4-fluorophenethoxy)phenyl)-4-(4,4-dimethylpiperidin-1-yl)-2-methylpyridin-3-yl)-2-(tert-butoxy)acetic acid] | 2 nM
Cc1ccc(CCOc2ncc(-c3cnc(C)c([C@H](OC(C)(C)C)C(=O)O)c3N3CCC(C)(C)CC3)cc2F)cc1 [Example 405, (2S)-2-(tert-butoxy)-2-[4-(4,4-dimethylpiperidin-1-yl)-5′-fluoro-6-methyl-6′-[2-(4-methylphenyl)ethoxy]-[3,3′-bipyridine]-5-yl]acetic acid] | 4 nM
